Measured values: publication PMC8396344, “Palmitoylation of Prolactin-Releasing Peptide Increased Affinity for and Activation of the GPR10, NPFF-R2 and NPFF-R1 Receptors: In Vitro Study” (International Journal of Molecular Sciences, 2021)
Starred links: 1 amine or outer side, 2 acyl side, 3 side chain; linkers in the order of their positions; H or OH if unused. Non-standard residues stand in square brackets, D forms with d. Residues, ends and D or L forms follow the SMILES beside them. Groups on a side chain read outwards from the residue. *: point of attachment. γGlu = O=C(O)[C@H](CCC(=O)[*:2])N[*:1]; Palmitoyl = CCCCCCCCCCCCCCCC(=O)*; NMeF = CN[C@@H](Cc1ccccc1)C(=O)O

How the values were obtained:
NPFF-R2 [1] = molecular target: T1, NPFF-R2 (Homo sapiens, UniProt Q9Y5X5); test: Intracellular Ca^2+ mobilization, AequoScreen CHO-K1 cells with NPFF-R2; assay type: cell-based; conditions: CHO-K1 NPFF-R2 aequorin cells; peptides 10^−12 to 10^−5 M; mean ± SEM, three times in duplicates; read-out: EC50 intracellular Ca^2+ release, NPFF-R2
T1 construct: host or cells: CHO-K1 (AequoScreen, co-expressing aequorin)
Experimental: The intracellular Ca^2+ level was measured using the AequoScreen stable CHO-K1 cell line containing NPFF-R2 purchased from Perkin Elmer according to the manufacturer’s protocol. Cells at 80–90% confluence cultured in media without selective antibiotics were detached (PBS pH 7.4 + 0.5 mM EDTA) and centrifuged. Cells resuspended in phenol red-free DMEM with 0.1% protease-free BSA and 5 µM coelenterazine h (Thermo Fisher Scientific Inc. Brand) were seeded at 50,000 cells/well in 96-well plates and incubated in the dark at RT with gentle agitation for 4 h. Peptides were tested at concentrations from 10^−12 to 10^−5 M. Luminescent light emission was recorded using a FlexStation 3 plate reader.
Ca^2+ release assay data are shown as the percentage of maximal response, and the results were analyzed by nonlinear regression as log agonist versus response using GraphPad software. Data are representative of at least three experiments, each performed in duplicate.

GPR10 [2] = molecular target: T2, GPR10 (Homo sapiens, UniProt P49683); test: Competitive binding, [^125I]-PrRP31, CHO-K1 cells expressing GPR10; conditions: competition with [^125I]-PrRP31, CHO-K1 cells expressing human GPR10; mean ± SEM, 2–5 independent experiments in duplicates; Cheng-Prusoff; read-out: Ki GPR10 [^125I]-PrRP31
T2 construct: host or cells: CHO-K1
T2 sequence (P49683 1-370): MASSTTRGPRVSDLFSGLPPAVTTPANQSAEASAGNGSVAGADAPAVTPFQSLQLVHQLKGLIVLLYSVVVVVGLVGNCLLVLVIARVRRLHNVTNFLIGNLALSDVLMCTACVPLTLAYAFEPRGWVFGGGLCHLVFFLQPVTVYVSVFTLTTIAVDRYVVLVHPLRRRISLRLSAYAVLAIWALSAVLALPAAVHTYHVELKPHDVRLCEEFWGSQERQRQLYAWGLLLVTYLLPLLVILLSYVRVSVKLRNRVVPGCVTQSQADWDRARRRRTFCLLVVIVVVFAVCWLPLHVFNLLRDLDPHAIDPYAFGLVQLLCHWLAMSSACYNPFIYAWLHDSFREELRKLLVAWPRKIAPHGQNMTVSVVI

NPFF-R2 [3] = molecular target: T1, NPFF-R2; test: Cell signaling by immunoblotting, CHO-K1 cells expressing NPFF-R2; assay type: cell-based; conditions: dose-response 10^−11 to 10^−5 M, 5 min, 37 °C, immunoblot, at least two experiments
Experimental: Cells were seeded in 24-well plates at 30,000 cells/well in assay medium (growth medium without selective antibiotics) and were grown for 2 days. The day before the experiment, the medium was changed to serum-free medium. […] Cells were lysed with Laemmli sample buffer (62.5 mM Tris-HCl at pH 6.8, 2% SDS, 10% glycerol, 0.01% bromophenol blue, 5% β-mercaptoethanol, 50 mM NaF, and 1 mM Na3VO4). Samples were stored at −20 °C. Electrophoresis and immunoblotting were performed as described previously. For detection of signaling pathways, primary monoclonal antibodies (see Table 5 for the antibodies used) purchased from Cell Signaling Technology (Danvers, MA, USA) were used.
(§1) Experiments using immunoblotting were analyzed using one-way ANOVA followed by Dunnett’s post hoc test; p < 0.05 was considered statistically significant. Dose-response curves were obtained from nonlinear regression.

ORL-1 = molecular target: T3, ORL-1 (Homo sapiens, UniProt P41146); test: Beta-lactamase reporter gene assay (FRET), ORL-1; assay type: cell-based; conditions: β-lactamase assay, agonist mode, U2OS cells; mean ± SEM, 2–3 independent experiments in duplicates
T3 construct: host or cells: U2OS

KOR = molecular target: T4, KOR (Homo sapiens, UniProt P41145); test: cell-based
T4 construct: host or cells: CHO-K1

Y1 = molecular target: T5, Y1 (Homo sapiens, UniProt P25929); test: Competitive and saturation binding, [^125I]-PYY, U2OS cells with Y1
T5 construct: host or cells: U2OS
T5 sequence (P25929 1-384): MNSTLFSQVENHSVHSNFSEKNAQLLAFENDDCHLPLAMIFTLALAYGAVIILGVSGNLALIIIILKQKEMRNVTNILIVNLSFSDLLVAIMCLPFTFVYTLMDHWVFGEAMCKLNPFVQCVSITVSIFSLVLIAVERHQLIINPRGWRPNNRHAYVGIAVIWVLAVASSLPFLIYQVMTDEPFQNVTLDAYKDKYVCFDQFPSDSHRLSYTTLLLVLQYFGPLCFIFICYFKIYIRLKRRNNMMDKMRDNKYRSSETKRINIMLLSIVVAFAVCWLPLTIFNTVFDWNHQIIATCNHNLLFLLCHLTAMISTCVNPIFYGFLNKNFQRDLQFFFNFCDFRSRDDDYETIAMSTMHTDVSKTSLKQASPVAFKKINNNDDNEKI
Experimental: (§2) Competition binding experiments were performed according to [45]. […] Binding experiments using U2OS cells were optimized and performed in assay buffer (50 mM Tris-Cl pH 7.4, 118 mM NaCl, 5 mM MgCl2, 4.7 mM KCl, 0.1% BSA) for cells stably expressing GHSR and (25 mM HEPES, 120 mM NaCl, 5 mM MgCl2, 4.7 mM KCl, 1 mM CaCl2, 0.5% BSA, 2 g/L glucose) for cells containing receptors Y1, Y2 and Y5. […] Cells were incubated for 60 min at room temperature (RT).
(§3) Experiments were carried out in duplicate at least three times, and Ki was calculated using the Cheng-Prusoff equation.
(§4) Data were analyzed by GraphPad Software (San Diego, CA, USA) and are presented as the means ± SEM. The saturation and competitive binding experiments were analyzed according to [46] using the Cheng-Prusoff equation [33]. The competitive binding curves were plotted compared to the best fit for single-binding site models, and half maximal inhibitory concentration (IC50) values were obtained from nonlinear regression analysis. From saturation binding experiments, the dissociation constant (Kd) and number of binding sites/cell (Bmax) were calculated. Inhibition constants (Ki) were calculated from IC50 values, Kd and the concentration of radioligands.

MOR = molecular target: T6, MOR (Homo sapiens, UniProt P35372); test: Beta-lactamase reporter gene assay (FRET), MOR; assay type: cell-based
T6 construct: host or cells: U2OS

DOR = molecular target: T7, DOR (Homo sapiens, UniProt P41143); test: Beta-lactamase reporter gene assay (FRET), DOR; assay type: cell-based; conditions: β-lactamase assay, agonist mode, U2OS cells; mean ± SEM, 2–3 independent experiments in duplicates
T7 construct: host or cells: U2OS

GPR10 [4] = molecular target: T2, GPR10; test: Cell signaling by immunoblotting, CHO-K1 cells expressing GPR10; assay type: cell-based; conditions: dose-response 10^−11 to 10^−5 M, 5 min, 37 °C, immunoblot, at least two experiments
Experimental: Activation of signaling pathways was studied in the CHO-K1 cell lines containing GPR10, NPFF-R2 and NPFF-R1. Cells were seeded in 24-well plates at 30,000 cells/well in assay medium (growth medium without selective antibiotics) and were grown for 2 days. The day before the experiment, the medium was changed to serum-free medium. […] Cells were lysed with Laemmli sample buffer (62.5 mM Tris-HCl at pH 6.8, 2% SDS, 10% glycerol, 0.01% bromophenol blue, 5% β-mercaptoethanol, 50 mM NaF, and 1 mM Na3VO4). Samples were stored at −20 °C. Electrophoresis and immunoblotting were performed as described previously. For detection of signaling pathways, primary monoclonal antibodies (see Table 5 for the antibodies used) purchased from Cell Signaling Technology (Danvers, MA, USA) were used.
as §1

Y2 = molecular target: T8, Y2 (Homo sapiens, UniProt P49146); test: Competitive and saturation binding, [^125I]-PYY, U2OS cells with Y2
T8 construct: host or cells: U2OS
T8 sequence (P49146 1-381): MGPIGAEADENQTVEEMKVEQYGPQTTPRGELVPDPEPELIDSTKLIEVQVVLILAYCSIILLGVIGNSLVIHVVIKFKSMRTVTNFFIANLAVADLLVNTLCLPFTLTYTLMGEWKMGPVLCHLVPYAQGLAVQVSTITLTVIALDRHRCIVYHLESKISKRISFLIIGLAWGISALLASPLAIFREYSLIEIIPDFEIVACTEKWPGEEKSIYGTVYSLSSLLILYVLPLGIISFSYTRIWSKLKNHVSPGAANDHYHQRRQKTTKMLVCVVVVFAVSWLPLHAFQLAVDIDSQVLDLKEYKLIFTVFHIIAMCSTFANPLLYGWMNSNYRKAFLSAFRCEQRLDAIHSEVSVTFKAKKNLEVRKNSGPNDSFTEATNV
Experimental: as §2, §3, §4

T1 sequence (Q9Y5X5 whole entry): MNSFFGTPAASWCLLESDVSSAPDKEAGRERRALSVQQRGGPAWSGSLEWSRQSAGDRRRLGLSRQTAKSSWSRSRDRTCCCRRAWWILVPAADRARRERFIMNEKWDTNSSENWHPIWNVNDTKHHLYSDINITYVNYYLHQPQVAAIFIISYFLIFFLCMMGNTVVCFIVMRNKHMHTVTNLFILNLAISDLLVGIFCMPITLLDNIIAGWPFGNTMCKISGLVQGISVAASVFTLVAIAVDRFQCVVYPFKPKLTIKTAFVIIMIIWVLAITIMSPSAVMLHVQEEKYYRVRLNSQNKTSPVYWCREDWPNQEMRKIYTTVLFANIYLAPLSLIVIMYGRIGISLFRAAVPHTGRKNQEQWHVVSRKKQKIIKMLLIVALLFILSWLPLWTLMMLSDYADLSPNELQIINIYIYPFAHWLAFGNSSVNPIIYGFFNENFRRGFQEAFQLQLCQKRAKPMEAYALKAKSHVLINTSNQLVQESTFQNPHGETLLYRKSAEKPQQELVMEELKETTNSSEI
T6 sequence (P35372 whole entry): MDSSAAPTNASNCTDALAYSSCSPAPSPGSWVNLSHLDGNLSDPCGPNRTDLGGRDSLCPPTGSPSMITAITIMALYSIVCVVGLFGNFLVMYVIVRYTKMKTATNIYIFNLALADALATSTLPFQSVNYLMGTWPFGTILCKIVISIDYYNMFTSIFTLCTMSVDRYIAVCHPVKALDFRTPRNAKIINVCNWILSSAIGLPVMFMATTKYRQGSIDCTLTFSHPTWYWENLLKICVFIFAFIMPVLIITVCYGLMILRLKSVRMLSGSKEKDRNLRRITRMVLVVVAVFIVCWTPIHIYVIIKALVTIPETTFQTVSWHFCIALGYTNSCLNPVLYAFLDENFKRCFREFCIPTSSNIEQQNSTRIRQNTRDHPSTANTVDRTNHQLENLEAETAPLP
T4 sequence (P41145 whole entry): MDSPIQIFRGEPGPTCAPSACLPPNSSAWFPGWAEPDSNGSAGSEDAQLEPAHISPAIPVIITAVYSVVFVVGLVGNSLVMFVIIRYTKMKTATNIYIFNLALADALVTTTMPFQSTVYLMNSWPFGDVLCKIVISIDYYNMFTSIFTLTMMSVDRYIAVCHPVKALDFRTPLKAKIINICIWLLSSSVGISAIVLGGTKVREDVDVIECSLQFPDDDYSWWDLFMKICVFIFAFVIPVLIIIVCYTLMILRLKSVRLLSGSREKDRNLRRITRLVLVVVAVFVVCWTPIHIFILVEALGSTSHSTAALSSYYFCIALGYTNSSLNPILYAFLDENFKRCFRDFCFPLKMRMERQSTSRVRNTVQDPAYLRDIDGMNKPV
T7 sequence (P41143 whole entry): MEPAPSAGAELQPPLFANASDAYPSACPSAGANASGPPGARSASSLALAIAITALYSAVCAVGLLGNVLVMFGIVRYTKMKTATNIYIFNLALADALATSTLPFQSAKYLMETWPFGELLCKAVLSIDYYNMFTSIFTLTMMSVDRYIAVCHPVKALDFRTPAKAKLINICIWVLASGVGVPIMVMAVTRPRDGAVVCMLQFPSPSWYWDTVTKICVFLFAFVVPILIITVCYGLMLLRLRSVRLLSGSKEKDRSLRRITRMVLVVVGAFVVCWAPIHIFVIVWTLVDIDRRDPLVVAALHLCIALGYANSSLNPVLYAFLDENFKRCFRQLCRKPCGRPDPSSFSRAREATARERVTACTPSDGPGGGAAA
T3 sequence (P41146 whole entry): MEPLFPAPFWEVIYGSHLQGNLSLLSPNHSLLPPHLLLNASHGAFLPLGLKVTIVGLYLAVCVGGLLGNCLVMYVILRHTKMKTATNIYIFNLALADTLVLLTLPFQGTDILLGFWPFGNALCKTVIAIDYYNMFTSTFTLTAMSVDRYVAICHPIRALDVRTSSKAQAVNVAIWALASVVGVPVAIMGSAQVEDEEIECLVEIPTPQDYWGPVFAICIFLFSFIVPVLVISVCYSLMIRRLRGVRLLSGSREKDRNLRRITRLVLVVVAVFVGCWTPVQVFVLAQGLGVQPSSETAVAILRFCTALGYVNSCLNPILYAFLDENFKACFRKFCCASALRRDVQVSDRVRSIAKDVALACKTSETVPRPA

| Structure (SMILES) | EC50 (NPFF-R2 [1]) | Ki (GPR10 [2]) | EC50 of ERK activation (NPFF-R2 [3]) | EC50 (ORL-1) | EC50 (KOR) | Ki (Y1) | EC50 (MOR) | EC50 (DOR) | EC50 of ERK activation (GPR10 [4]) | Ki (Y2) |
| --- | --- | --- | --- | --- | --- | --- | --- | --- | --- | --- |
| CC(C)C[C@H](NC(=O)[C@H](N)Cc1ccc(O)cc1)C(=O)N(C)[C@@H](Cc1ccccc1)C(=O)N[C@@H](CCC(N)=O)C(=O)N1CCC[C@H]1C(=O)N[C@@H](CCC(N)=O)C(=O)N[C@@H](CCCN=C(N)N)C(=O)N[C@@H](Cc1ccccc1)C(N)=O [1DMe] (H-[dY]L[NMeF]QPQRF-NH2) | 0.00082 ± 0.00015 µM | > 10 µM | – | – | – | – | – | – | – | – |
| CC(C)C[C@H](NC(=O)[C@H](N)Cc1ccc(O)cc1)C(=O)N(C)[C@@H](Cc1ccccc1)C(=O)N[C@@H](CCC(N)=O)C(=O)N1CCC[C@H]1C(=O)N[C@@H](CCC(N)=O)C(=O)N[C@@H](CCCNC(=N)N)C(=O)N[C@@H](Cc1ccccc1)C(N)=O [1DMe] (H-[dY]L[NMeF]QPQRF-NH2) | – | – | in nanomolar concentrations | – | – | – | – | – | – | – |
| CCCCCCCCCCCCCCCC(=O)N[C@@H](CCC(=O)NCCCC[C@H](NC(=O)[C@@H](NC(=O)[C@H](CCC(=O)O)NC(=O)[C@H](CCSC)NC(=O)[C@H](CO)NC(=O)[C@H](Cc1c[nH]cn1)NC(=O)[C@H](CCCNC(=N)N)NC(=O)[C@H](Cc1c[nH]cn1)NC(=O)[C@@H](NC(=O)[C@H](CCCNC(=N)N)NC(=O)[C@@H](N)CO)[C@@H](C)O)[C@@H](C)CC)C(=O)N[C@H](C(=O)N1CCC[C@H]1C(=O)N[C@@H](CC(=O)O)C(=O)N[C@H](C(=O)N[C@@H](CC(N)=O)C(=O)N1CCC[C@H]1C(=O)N[C@@H](C)C(=O)N[C@@H](Cc1c[nH]c2ccccc12)C(=O)N[C@@H](Cc1ccc(O)cc1)C(=O)N[C@@H](C)C(=O)N[C@@H](CO)C(=O)N[C@@H](CCCNC(=N)N)C(=O)NCC(=O)N[C@H](C(=O)N[C@@H](CCCNC(=N)N)C(=O)N1CCC[C@H]1C(=O)N[C@H](C(=O)NCC(=O)N[C@@H](CCCNC(=N)N)C(=O)N[C@@H](Cc1ccccc1)C(N)=O)C(C)C)[C@@H](C)CC)[C@@H](C)CC)[C@@H](C)O)C(=O)O [Palm^11-PrRP31] (H-SRTHRHSMEIK([γGlu-Palmitoyl])TPDINPAWYASRGIRPVGRF-NH2) | 0.0187 ± 0.00131 µM | – | – | > 10 µM | > 10 µM | > 10 µM | > 10 µM | > 10 µM | in the nanomolar range | > 10 µM |
